Test: xn = mol fraction of the nth substance listed

O=C([O-])[C@H](O)[C@@H](O)[C@H](O)[C@H](O)CO.[Na+] + O
viscosity [mPa·s], 100 kPa
Details | 298.15 K | 308.15 K | 318.15 K
x1 = 0.0004 | 0.8985 | 0.7295 | 0.6062
x1 = 0.0007 | 0.9101 | 0.7386 | 0.6138
x1 = 0.001 | 0.9193 | 0.7501 | 0.6218

COCCOCCO + O=C1CCCN1
298.15 K, 101 kPa
Details | viscosity [mPa·s]
x1 = 0.0019 | 14.15
x1 = 0.0054 | 14.04
x1 = 0.0129 | 13.78
x1 = 0.0209 | 13.49
x1 = 0.0311 | 13.16
x1 = 0.0482 | 12.66
x1 = 0.0682 | 12.11
x1 = 0.0864 | 11.61
x1 = 0.1139 | 10.99
x1 = 0.1615 | 9.962
x1 = 0.2074 | 9.178
x1 = 0.2531 | 8.449
x1 = 0.2817 | 8.045
x1 = 0.3289 | 7.543
x1 = 0.3814 | 7.009
x1 = 0.4684 | 6.246
x1 = 0.489 | 6.106
x1 = 0.5396 | 5.741
x1 = 0.6097 | 5.295
x1 = 0.6687 | 4.976
x1 = 0.7169 | 4.749
x1 = 0.7652 | 4.502
x1 = 0.8144 | 4.294
x1 = 0.8697 | 4.069
x1 = 0.8962 | 3.972
x1 = 0.9239 | 3.85
x1 = 0.9469 | 3.745
x1 = 0.9719 | 3.658
x2 = 0.0058 | 3.533
x2 = 0.0141 | 3.561

COC=O + O=C1CCCO1
298.15 K, 101.33 kPa
Details | viscosity [mPa·s]
x1 = 0.0499 | 1.589
x1 = 0.1025 | 1.457
x1 = 0.153 | 1.367
x1 = 0.2017 | 1.262
x1 = 0.2492 | 1.175
x1 = 0.303 | 1.08
x1 = 0.4004 | 0.913
x1 = 0.4594 | 0.821
x1 = 0.5053 | 0.747
x1 = 0.5599 | 0.678
x1 = 0.6177 | 0.611
x1 = 0.7071 | 0.515
x1 = 0.7556 | 0.456
x1 = 0.8 | 0.426
x1 = 0.8515 | 0.38
x1 = 0.9005 | 0.344
x1 = 0.9511 | 0.331

Cc1ccccc1C + O=C1CCCO1
viscosity [mPa·s], 101.33 kPa
Details | x2 = 0.1199 | x2 = 0.1801 | x2 = 0.2998 | x2 = 0.4005 | x2 = 0.5044 | x2 = 0.5994 | x2 = 0.7011 | x2 = 0.7885 | x2 = 0.9087
293.15 K | 0.907 | 0.955 | 1.054 | 1.145 | 1.248 | 1.351 | 1.472 | 1.584 | 1.75
298.15 K | 0.854 | 0.901 | 0.996 | 1.081 | 1.175 | 1.269 | 1.379 | 1.48 | 1.629
303.15 K | 0.795 | 0.839 | 0.927 | 1.006 | 1.093 | 1.178 | 1.276 | 1.367 | 1.502
308.15 K | 0.747 | 0.787 | 0.867 | 0.937 | 1.014 | 1.09 | 1.179 | 1.263 | 1.39

Cc1ccc(N)cc1 + O=[N+]([O-])c1ccccc1O
323.1 K, 101 kPa
Details | viscosity [mPa·s]
x2 = 0.296 | 1.835
x2 = 0.75 | 2.15

CCCCCCCCCCCC[P+](CC)(CC)CC.N#Cc1ccc[n-]1 + OCC(O)CO
100 kPa
Details | viscosity [mPa·s]
293.15 K, x1 = 0.542 | 941
293.15 K, x1 = 0.677 | 861
298.15 K, x1 = 0.003 | 864
298.15 K, x1 = 0.01 | 905
298.15 K, x1 = 0.343 | 974
298.15 K, x1 = 0.426 | 715
303.15 K, x1 = 0.041 | 788
303.15 K, x1 = 0.056 | 912
303.15 K, x1 = 0.196 | 957
303.15 K, x1 = 0.292 | 734

CCCCCCCCCCCC[P+](CC)(CC)CC.N#Cc1ccc[n-]1 + OCCN(CCO)CCO
viscosity [mPa·s], 100 kPa
Details | x1 = 0.035 | x1 = 0.091 | x1 = 0.207 | x1 = 0.28 | x1 = 0.473 | x1 = 0.687 | x1 = 0.809
293.15 K | 991 | – | 876 | 863 | 853 | 836 | 718
298.15 K | – | 675 | – | – | – | – | –

CCn1cc[n+](C)c1.F[B-](F)(F)F + OCCO
Details | viscosity [mPa·s]
313.15 K, 101 kPa, x1 = 0.7003 | 10.55
323.15 K, 100 kPa, x1 = 0.717 | 9.915
323.15 K, 101 kPa, x1 = 0.7997 | 9.913

Cc1ccc(N)cc1 + Oc1ccccc1
101 kPa
Details | viscosity [mPa·s]
303.1 K, x2 = 0.43 | 7.57
303.1 K, x2 = 0.507 | 8.64
303.1 K, x2 = 0.619 | 9.42
303.1 K, x2 = 0.652 | 9.62
303.1 K, x2 = 0.741 | 8.94
313.05 K, x2 = 0.111 | 2.632
313.05 K, x2 = 0.2288 | 3.352
313.05 K, x2 = 0.3265 | 4.09
313.05 K, x2 = 0.4169 | 4.82
313.05 K, x2 = 0.4949 | 5.43
313.05 K, x2 = 0.5828 | 6.015
313.05 K, x2 = 0.6568 | 6.29
313.05 K, x2 = 0.737 | 6.27
313.05 K, x2 = 0.8217 | 5.915
313.05 K, x2 = 0.9089 | 5.38

c1ccc(Oc2ccccc2)cc1 + c1ccc(-c2ccccc2)cc1
Details | viscosity [mPa·s]
293.15 K, 101 kPa, x1 = 0.705 | 4.35
298.15 K, 101 kPa, x1 = 0.705 | 3.78
298.15 K, 101 kPa, x1 = 0.85 | 3.71
298.95 K, 101.33 kPa, x1 = 0.715 | 3.66
303.15 K, 101 kPa, x1 = 0.85 | 3.32
308.15 K, 101 kPa, x1 = 0.705 | 2.94
308.15 K, 101 kPa, x1 = 0.85 | 2.93
309.85 K, 101.33 kPa, x1 = 0.715 | 2.84
313.15 K, 101 kPa, x1 = 0.55 | 2.63
313.15 K, 101 kPa, x1 = 0.705 | 2.61
313.15 K, 101 kPa, x1 = 0.85 | 2.61
314.15 K, 101.33 kPa, x1 = 0.715 | 2.57
318.65 K, 101.33 kPa, x1 = 0.715 | 2.4
321.95 K, 101.33 kPa, x1 = 0.715 | 2.29
